What was measured:
[1] = system: Rat cortical neurons; assay: Oxidative stress (H2O2)-induced toxicity, viability; type: cell-based; conditions: 400 μM H2O2 24 hours, pre-treatment 16 hours
[2] = system: Ac-K56-H3; conditions: diabetes patients, 500 mg/day; cited from earlier work
[3] = system: HPF1; assay: Immunoblot for HPF1 protein; type: cell-based, rat; conditions: high dose 25 μM, up to 16 hr, time-dependent
Description: Ac-K56-H3 is a marker of genomic stability, see Driscoll, R., Hudson, A. & Jackson, S. P. Yeast Rtt109 promotes genome stability by acetylating histone H3 on lysine 56. Science 315, 649-652, doi:10.1126/science.1135862 (2007), and DNA damage, see Tjeertes, J. V., Miller, K. M. & Jackson, S. P. Screen for DNA-damage-responsive histone modifications identifies H3K9Ac and H3K56Ac in human cells. EMBO J 28, 1878-1889, doi:10.1038/emboj.2009.119 (2009), and inhibition of PARP1 causes the downregulation of RAD51, see Hegan, D. C. et al. Inhibition of poly(ADP-ribose) polymerase down-regulates BRCA1 and RAD51 in a pathway mediated by E2F4 and p130. […] The western blot images of the protein levels of HPF1 was quantified using ImageJ.
Cultured neurons (DIV 9-10) were washed once with cold 1×PBS and lysed in cell lysis buffer (20 mM Tris-HCl (pH 7.5), 150 mM NaCl, 1 mM Na2EDTA, 1 mM EGTA, 1% Triton, 2.5 mM sodium pyrophosphate, 1 mM beta-glycerophosphate, 1 mM Na3VO4, 1 μg/ml leupeptin supplemented with protease inhibitor). […] Lysates were quantified using Bio-Rad Protein Assay, and an equal amount of protein was loaded onto a 4 to 12% gradient gel (NuPAGE-Invitrogen). […] Quantification for the western blots was done using ImageJ (Version 1.53c).

| SMILES | protection from toxicity induced by oxidative stress [1] | levels of Ac-K56-H3 in PBMC [2] | HPF1 protein levels [3] |
| --- | --- | --- | --- |
| Oc1ccc(/C=C\c2cc(O)cc(O)c2)cc1 [cis-RSV, cis-resveratrol] | protects neurons from toxicity induced by oxidative stress | – | – |
| Oc1ccc(/C=C/c2cc(O)cc(O)c2)cc1 [trans-RSV, trans-resveratrol] | – | decreased levels of Ac-K56-H3 | downregulated the protein levels of the histone poly-ADP-ribosylation factor 1 (HPF1) |

Source: patent US20240342111A1, “ISOMER-SPECIFIC NEUROPROTECTIVE EFFECT OF NATURAL RESERVATROL” (priority 2021, published 2024)
